Consider 2 molecules from patent US8398759B2, “Environmental friendly anti-microbial adhesion agents for anti-fouling paints and anti-fouling paints containing them” (Biopaint S.R.L., priority 2008, dated 2013).

What all share (format): cell-based
For assay [1], the system named is mixed populations of biofilmogenic sea bacteria (M1, T1-T5, F1). Kind of assay: Bio-film formation (crystal violet, OD570) in 24-well microplates, compounds in the free form. As to the method: (§1) The effect of the anti-microbial-adhesion agent of the invention on microbial adhesion and growth has been estimated by using mixed populations of biofilmogenic sea bacteria isolated from the Tyrrhenian Sea (M1), the Adriatic Sea (T1-T5) and an exhausted aquarium filter (F1).
The tests with the compounds in the free form were carried out by using: • eugenol in a concentration in the range from 0.5 to 4 g/l, solubilized in an organic solvent (methanol); • vanillin in a concentration in the range from 0.1 to 5 g/l; • benzaldehyde derivatives in a concentration of 2 g/l.
The formation of the bio-film was assessed, in an indirect way, by measuring the amount of crystal violet retained by the cells grown adherently.
The tests were performed in 24-well microplates inoculated with sea bacteria from bio-films of cultures grown under static conditions for 2 weeks. The effect of the compounds was determined by culturing the microorganisms (starting OD600=0.5) in synthetic sea water (Tropic Marin Sea Salt; 33 g/l) supplemented with yeast extract (3 g/l) and fungal peptone (5 g/l). After the inoculation, the plates were incubated at 20° C. for 5 days before assessing the formation of a bio-film (OD570) and the growth of plankton (OD600). The bio-film was estimated after staining with crystal violet.
The inhibition of adhesion experiments were carried out in 24-well microplates by using eugenol concentrations comprised between 0.5 and 4 g/l. The eugenol stock solution was obtained by melting 2 ml of the compound into 3 ml of methanol and 5 ml of a 10 M NaOH solution. The control plates were set up by adding the same volume of hydroalcoholic solution without eugenol. The results shown in FIG. 1 were obtained by using the M1 population. The tests were subsequently repeated with all 7 populations, using an eugenol concentration of 0.5 g/l.

The test system is the same in assay [2]. Kind of assay: Bio-film formation (OD570) in microplates painted with supplemented anti-fouling paints. The note with it: 50 g of agent per kg of paint (E50 FIG. 8; V50 FIG. 9); M1, T1 and T5 populations. On the procedure:
as §1
The effectiveness of paints supplemented with the anti-microbial-adhesion agents of the invention in inhibiting the adherent growth of the sea bacteria used in the previous tests was assessed. The formation of a bio-film (OD570) was estimated by the microplate (24 wells) spectrophotometric assay described above. […]
Parallel assays were carried out by using microplates painted with a commercial anti-fouling product (Veneziani Raffaello bianca racing) and non-painted microplates. […]
The paints to be tested were applied only onto the side surface (corresponding to approximately 8.8 cm^2), avoiding to paint the bottom of the wells. […] The plates were inoculated with a cell suspension at an optical density (measured at 600 nm) of 0.5 absorbance units, kept under static incubation, in the dark, for 5 days at 20° C. 5 Days later, the microplates were drained and the growth of the plankton population was determined by a spectrophotometric assessment of the increase in absorbance of the incubation medium. The detection and quantification of a microbial biofilm formation was performed by a spectrophotometric assay. […]

Assay [3] deals with plankton growth of sea bacteria populations M1, T1 and T5. In words: Plankton growth (OD600) in microplates painted with vanillin-supplemented paints. The note with it: paints V50, V100, V200; three populations (FIG. 10). On the procedure: The paints to be tested were applied only onto the side surface (corresponding to approximately 8.8 cm^2), avoiding to paint the bottom of the wells. The plates, after being painted, were maintained for 2 days at 20° C., in a dry and ventilated environment, before being used for the adhesion assay. The plates were inoculated with a cell suspension at an optical density (measured at 600 nm) of 0.5 absorbance units, kept under static incubation, in the dark, for 5 days at 20° C. 5 Days later, the microplates were drained and the growth of the plankton population was determined by a spectrophotometric assessment of the increase in absorbance of the incubation medium. The detection and quantification of a microbial biofilm formation was performed by a spectrophotometric assay. The biocide release rate under static conditions was calculated by measuring, through high performance liquid chromatography (HPLC), the increases in time of the biocide concentration in the liquid medium. […]
In FIG. 10, the increases in absorbance (OD600) are expressed as relative values compared to non-treated samples (not painted).

`C=CCc1ccc(O)c(OC)c1` [eugenol]: the “reduction in the bio-film formation” value in assay [1] (eugenol 0.5 g/l, free form, 5 days at 20° C., all populations except T3 and F1 (FIG. 2)) was “about 50%”. The inhibition at 500 µg/mL in assay [1] (eugenol 0.5 g/l, free form, F1 population (FIG. 2)) was approximately 60%; in assay [1] (eugenol 0.5 g/l, free form, T3 population (FIG. 2)) it was approximately 15%. Besides, the “reduced adherent growth of sea bacteria compared to the commercial product” value in assay [2] was 1.2-3.2 fold.

As for `COc1cc(C=O)ccc1O` [vanillin], in assay [3], the “effect of vanillin release on plankton growth (OD600 relative to non-painted samples)” value is recorded as “reduced effect on the plankton growth”. Also, the “persistence of the inhibition effect on adhesion” value in assay [1] (M1 population, 10 days of incubation (FIG. 4)) is listed as “persists even after 10 days of incubation”. In addition, the “concentration at which adhesion of microorganisms to solid surfaces is inhibited” value in assay [1] (vanillin tested at 0.1 to 5 g/l, free form, T1, M1, T2, T1-T5, F1 populations (FIG. 3a-5)) is “above 1 g/l”. In addition, the “reduced adherent growth of sea bacteria compared to the commercial product” value in assay [2] is 1.5-15.8 fold.
